{"source": "paper PMC11721817", "about": "(Toxicology Reports, 2024)", "key": {"Wistar rats [1]": {"tested_on": "Wistar rats", "experiment": "Superoxide dismutase activity in organ homogenates", "format": "in vivo, rat", "conditions": "1000 mg/kg"}, "[2]": {"tested_on": "CT-26 (murine colorectal cancer cells)", "experiment": "MTT cytotoxicity assay, CT-26", "format": "cell-based", "conditions": "Mus musculus, CT26, 24 h"}, "Wistar rats [3]": {"tested_on": "Wistar rats", "experiment": "Acute oral toxicity study", "conditions": "for change in body weight / food consumed by animals (weight) / change in organ weight, Kidney / change in organ weight, Liver / change in organ weight, Spleen: mean ± S.E.M, n = 5"}, "Wistar rats [4]": {"tested_on": "Wistar rats", "experiment": "Histopathological examination of liver, kidney and spleen", "format": "in vivo, rat", "conditions": "H&E"}, "[5]": {"tested_on": "HCT-116 (human colorectal cancer cells)", "experiment": "MTT cytotoxicity assay, HCT-116", "format": "cell-based"}, "HCT-116 cells [6]": {"tested_on": "HCT-116 cells", "experiment": "DNA fragmentation, Hoechst staining, HCT-116", "format": "cell-based, human", "conditions": "HCT-116, 50 µM, 24 h"}, "CT-26 cells [7]": {"tested_on": "CT-26 cells", "experiment": "DNA fragmentation, Hoechst staining, CT-26", "format": "cell-based, murine", "conditions": "CT-26, 50 µM, 24 h"}, "Wistar rats [8]": {"tested_on": "Wistar rats", "experiment": "Lipid peroxidation assay", "format": "in vivo, rat", "conditions": "1000 mg/kg, compared to control"}, "CT-26 cells [9]": {"tested_on": "CT-26 cells", "experiment": "Cell migration", "format": "cell-based, murine", "conditions": "24 h, control = 100 %"}, "red blood cells (RBCs)": {"tested_on": "red blood cells (RBCs)", "experiment": "Hemolysis assay", "format": "cell-based", "conditions": "rat blood, 10 μM, 25 μM, 50 μM, and 100 μM, compared to positive control"}, "HCT-116 cells [10]": {"tested_on": "HCT-116 cells", "experiment": "Cell migration", "format": "cell-based, human", "conditions": "24 h, control = 100 %"}, "Wistar rats [11]": {"tested_on": "Wistar rats", "experiment": "Serum biochemistry after acute oral administration", "conditions": "n = 3; for Globulin: normal range 1.5–2.5, mean ± S.E.M; for A/G ratio: normal range 1.58–2.67, mean ± S.E.M; for Albumin: normal range 3.4–4.8, mean ± S.E.M; for Total protein: normal range 5.2–7.1, mean ± S.E.M; for SGPT (ALT): normal range 18–45, mean ± S.E.M; for ALP: normal range 62–230, mean ± S.E.M; for SGOT (AST): normal range 74–183, mean ± S.E.M"}}, "data": [{"smiles": "CC(C)(C)Nc1c(-c2ccc(-c3ccccc3)cc2)nc2ccccn12", "note": "[IG-01–007, 2-([1,1’-biphenyl]-4-yl)-N-(tert-butyl)imidazo[1,2-a]pyridine-3-amine]", "values": [{"measurement": "SOD level, spleen", "setting": "Wistar rats [1]; compared with IG-01–007 and IG-01–008 at 300 mg/kg", "result": "significant reduction of SOD level"}, {"measurement": "SOD level, spleen", "setting": "Wistar rats [1]; compared with control and 1 % DMSO", "result": "significant decrease seen in SOD level"}, {"measurement": "IC50", "setting": "[2]", "result": "61.2 ± 21.2", "unit": "µM"}, {"measurement": "change in body weight", "setting": "Wistar rats [3]; 0 day, 300 mg/kg", "result": "233 ± 2", "unit": "gm"}, {"measurement": "food consumed by animals (weight)", "setting": "Wistar rats [3]; 0 day, 300 mg/kg", "result": "93.8 ± 1.1575", "unit": "gm"}, {"measurement": "change in body weight", "setting": "Wistar rats [3]; 0 day, 1000 mg/kg", "result": "244 ± 15.6844", "unit": "gm"}, {"measurement": "food consumed by animals (weight)", "setting": "Wistar rats [3]; 0 day, 1000 mg/kg", "result": "94.8 ± 0.80", "unit": "gm"}, {"measurement": "change in organ weight, Kidney", "setting": "Wistar rats [3]; 300 mg/kg", "result": "1.6568 ± 0.110", "unit": "gm"}, {"measurement": "change in organ weight, Liver", "setting": "Wistar rats [3]; 300 mg/kg", "result": "6.58 ± 0.535", "unit": "gm"}, {"measurement": "change in organ weight, Spleen", "setting": "Wistar rats [3]; 300 mg/kg", "result": "0.654 ± 0.075", "unit": "gm"}, {"measurement": "change in organ weight, Kidney", "setting": "Wistar rats [3]; 1000 mg/kg", "result": "1.854 ± 0.1179", "unit": "gm"}, {"measurement": "change in organ weight, Liver", "setting": "Wistar rats [3]; 1000 mg/kg", "result": "6.204 ± 0.2716", "unit": "gm"}, {"measurement": "change in organ weight, Spleen", "setting": "Wistar rats [3]; 1000 mg/kg", "result": "0.716 ± 0.0508", "unit": "gm"}, {"measurement": "body weight course", "setting": "Wistar rats [3]; 7th and 14th day, 1000 mg/kg", "result": "gradual decrease in body weight"}, {"measurement": "change in body weight", "setting": "Wistar rats [3]; 7th day, 300 mg/kg", "result": "248 ± 3.391", "unit": "gm"}, {"measurement": "food consumed by animals (weight)", "setting": "Wistar rats [3]; 7th day, 300 mg/kg", "result": "90.4 ± 1.288", "unit": "gm"}, {"measurement": "change in body weight", "setting": "Wistar rats [3]; 7th day, 1000 mg/kg", "result": "238 ± 16.17", "unit": "gm"}, {"measurement": "food consumed by animals (weight)", "setting": "Wistar rats [3]; 7th day, 1000 mg/kg", "result": "88.6 ± 1.363", "unit": "gm"}, {"measurement": "change in body weight", "setting": "Wistar rats [3]; 14th day, 300 mg/kg", "result": "253 ± 8", "unit": "gm"}, {"measurement": "food consumed by animals (weight)", "setting": "Wistar rats [3]; 14th day, 300 mg/kg", "result": "89.2 ± 2.009", "unit": "gm"}, {"measurement": "food intake", "setting": "Wistar rats [3]; 14th day, 1000 mg/kg, compared to control", "result": "significant decrease in food intake"}, {"measurement": "change in body weight", "setting": "Wistar rats [3]; 14th day, 1000 mg/kg", "result": "231 ± 15.033", "unit": "gm"}, {"measurement": "food consumed by animals (weight)", "setting": "Wistar rats [3]; 14th day, 1000 mg/kg", "result": "82.4 ± 1.939", "unit": "gm"}, {"measurement": "toxicity signs", "setting": "Wistar rats [3]; oral, 1000 mg/kg", "result": "toxicity signs were seen"}, {"measurement": "tremors, change in eye and skin color", "setting": "Wistar rats [3]; oral, 1000 mg/kg", "result": "tremors, change in eye and skin color was observed"}, {"measurement": "Mortality", "setting": "Wistar rats [3]; oral, 2000 mg/kg", "result": "Mortality was observed"}, {"measurement": "Liver sections, histopathology", "setting": "Wistar rats [4]; 300 mg/kg", "result": "healthy with normal hepatocytes while some sections were found to have non-uniform cell structure"}, {"measurement": "Spleen sections, histopathology", "setting": "Wistar rats [4]; 300 mg/kg", "result": "diffuse white pulp and distorted lymphoid architecture"}, {"measurement": "Liver sections, histopathology", "setting": "Wistar rats [4]; 1000 mg/kg", "result": "healthy with mild activation of kupffer cells indicated by circle and moderate steatosis"}, {"measurement": "Spleen sections, histopathology", "setting": "Wistar rats [4]; 1000 mg/kg", "result": "diffuse white pulp and distorted lymphoid architecture"}, {"measurement": "cell viability", "setting": "[5]; HCT-116, 10 μM and 25 μM", "result": "no significant reduction in cell viability"}, {"measurement": "IC50", "setting": "[5]; Homo sapiens, HCT-116, 24 h", "result": "30.1 ± 1.58", "unit": "µM"}, {"measurement": "DNA fragmentation", "setting": "HCT-116 cells [6]", "result": "DNA fragmentation"}, {"measurement": "DNA fragmentation", "setting": "CT-26 cells [7]", "result": "DNA fragmentation"}, {"measurement": "MDA levels, liver", "setting": "Wistar rats [8]", "result": "significantly higher"}, {"measurement": "migration percentages", "setting": "CT-26 cells [9]; CT-26, 25 μM", "result": 45.61, "unit": "%"}, {"measurement": "migration percentages", "setting": "CT-26 cells [9]; CT-26, 50 μM", "result": 30.62, "unit": "%"}, {"measurement": "hemolytic activity", "setting": "red blood cells (RBCs)", "result": "did not show any hemolytic activity"}, {"measurement": "% migration of cell", "setting": "HCT-116 cells [10]; HCT-116, 25 μM", "result": 41.75, "unit": "%"}, {"measurement": "% migration of cell", "setting": "HCT-116 cells [10]; HCT-116, 50 μM", "result": 35.07, "unit": "%"}, {"measurement": "Globulin", "setting": "Wistar rats [11]; 300 mg/kg", "result": "3.80 ± 0.404", "unit": "g/dL"}, {"measurement": "A/G ratio", "setting": "Wistar rats [11]; 300 mg/kg", "result": "0.69 ± 0.0608"}, {"measurement": "Albumin", "setting": "Wistar rats [11]; 300 mg/kg", "result": "3.33 ± 0.437", "unit": "g/dL"}, {"measurement": "Total protein", "setting": "Wistar rats [11]; 300 mg/kg", "result": "7.03 ± 0.491", "unit": "g/dL"}, {"measurement": "SGPT (ALT)", "setting": "Wistar rats [11]; 300 mg/kg", "result": "47.66 ± 2.728", "unit": "U/L"}, {"measurement": "ALP", "setting": "Wistar rats [11]; 300 mg/kg", "result": "307.33 ± 7.218", "unit": "U/L"}, {"measurement": "SGOT (AST)", "setting": "Wistar rats [11]; 300 mg/kg", "result": "193 ± 12.74", "unit": "U/L"}, {"measurement": "Globulin", "setting": "Wistar rats [11]; 1000 mg/kg", "result": "4.006 ± 0.1034", "unit": "g/dL"}, {"measurement": "A/G ratio", "setting": "Wistar rats [11]; 1000 mg/kg", "result": "0.6966 ± 0.0317"}, {"measurement": "Albumin", "setting": "Wistar rats [11]; 1000 mg/kg", "result": "3.683 ± 0.261", "unit": "g/dL"}, {"measurement": "Total protein", "setting": "Wistar rats [11]; 1000 mg/kg", "result": "7.40 ± 0.324", "unit": "g/dL"}, {"measurement": "SGPT (ALT)", "setting": "Wistar rats [11]; 1000 mg/kg", "result": "75.33 ± 4.05", "unit": "U/L"}, {"measurement": "Triglycerides", "setting": "Wistar rats [11]; 1000 mg/kg, normal range 20–114, mean ± S.E.M", "result": "115 ± 4.055", "unit": "mg%"}, {"measurement": "ALP", "setting": "Wistar rats [11]; 1000 mg/kg", "result": "343.0 ± 10.785", "unit": "U/L"}, {"measurement": "SGOT (AST)", "setting": "Wistar rats [11]; 1000 mg/kg", "result": "242 ± 3.785", "unit": "U/L"}]}]}
